# Measured values: PubChem BioAssay (NCI)
#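 Here, GI50 denotes the concentration required for 50% inhibition of growth. Definition used: TGI = concentration required for complete inhibition of growth.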
# Assays:
# Experiment in all cases: NCI anticancer screen, dose series, 384-well format
# [1] = tested on: BT-549 breast
# [2] = tested on: HCT-15 colon
# [3] = tested on: IGROV1 ovarian
# [4] = tested on: M14 melanoma
# [5] = tested on: MDA-MB-231 breast
# [6] = tested on: MDA-MB-468 breast
# [7] = tested on: NCI-H226 lung
# [8] = tested on: RXF 393 renal
# [9] = tested on: SF-268 CNS
# [10] = tested on: SK-MEL-5 melanoma
# [11] = tested on: SW-620 colon
# [12] = tested on: U251 glioblastoma
# [13] = tested on: UACC-257 melanoma
smiles,measurement,setting,value
CC(C)(O)c1cc(Nc2cc(Oc3cn(C4CC4)nc3C3CCOCC3)ccn2)ccn1,GI50,[1],38.7 µM
same,TGI,[1],> 100 µM
same,GI50,[2],> 100 µM
same,TGI,[2],> 100 µM
same,GI50,[3],> 100 µM
same,TGI,[3],> 100 µM
same,GI50,[4],> 100 µM
same,TGI,[4],> 100 µM
same,GI50,[5],> 89 µM
same,TGI,[5],> 100 µM
same,GI50,[6],33.8 µM
same,TGI,[6],> 83.5 µM
same,GI50,[7],> 93.3 µM
same,TGI,[7],> 100 µM
same,GI50,[8],43.5 µM
same,TGI,[8],> 100 µM
same,GI50,[9],> 100 µM
same,TGI,[9],> 100 µM
same,GI50,[10],16.4 µM
same,TGI,[10],> 100 µM
same,GI50,[11],> 91.7 µM
same,TGI,[11],> 100 µM
same,GI50,[12],> 100 µM
same,TGI,[12],> 100 µM
same,GI50,[13],45 µM
same,TGI,[13],> 100 µM
